Here are results for 23 compounds from US20210261512A1, “NOVEL COMPOUNDS” (INFLAZOME LIMITED, priority 2018, published 2021).

The target in assay [1] is T1, NLRP3 (Homo sapiens, UniProt Q96P20). In words: THP-1 cells pyroptosis assay. Further details: Seed THP-1 cells (25,000 cells/well) containing 1.0 μg/ml LPS; host or cells: THP-1. The conditions noted are these: LPS 1.0 μg/ml, nigericin 5 μM, resazurin readout, 10 μM top dose (Example 2: top dose of 30 μM). It is filed as cell-based. The gist of the method:
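THP-1 cells (25,000/well) primed with 1 μg/ml LPS in serum-free RPMI, treated with compound (8-point dilution, 10 μM top unless stated; 0.1% DMSO) 3 h at 37°C, then nigericin 5 μM 1 h. Viability read by resazurin (100 μM, 1-2 h) fluorescence; IC50 from 4-parameter fit.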
For orientation: Alamar Blue is a resazurin reagent that responds to reducing activity.

Assay [2] concerns the target T1, NLRP3. Put plainly: Human whole blood IL1β release assay. Format: cell-based. The conditions noted are these: LPS 1 μg/ml, nigericin 10 μM, IL-1β AlphaLisa, 10 μM top dose (Example 2: top dose of 30 μM), read-out: HWB IC50. The procedure: For systemic delivery, the ability to inhibit NLRP3 when the compounds are present within the bloodstream is of great importance. For this reason, the NLRP3 inhibitory activity of a number of compounds in human whole blood was investigated in accordance with the following protocol.
Human whole blood in sodium-heparin or lithium-heparin tubes was obtained from healthy donors from a volunteer donor panel. • 1. Plate out 80 μl of whole blood containing 1 μg/ml of LPS in 96-well, clear bottom cell culture plate (Corning #3585) • 2. Add 10 μl compound (8 points half-log dilution with 10 μM top dose, unless stated otherwise) or vehicle (DMSO 0.1% FAC) to the appropriate wells • 3. Incubate for 3 hrs at 37° C., 5% CO2 • 4. Add 10 μl nigericin (Sigma #N7143) (10 μM FAC) to all wells • 5. Incubate for 1 hr at 37° C., 5% CO2 • 6. At the end of the incubation period, spin plates at 300×g for 5 mins to pellet cells and remove 20 μl of supernatant and add to 96-well v-bottom plates for IL-1β analysis (note: these plates containing the supernatants can be stored at −80° C. to be analysed at a later date) • 7. IL-1β was measured according to the manufacturer protocol (Perkin Elmer-AlphaLisa IL-1 Kit AL220F-5000) • 8. IC50 data is fitted to a non-linear regression equation (log inhibitor vs response-variable slope 4-parameters)
A general note: In Alpha technology, singlet oxygen from a donor bead excites a nearby acceptor bead.

Bounds are passed on as bounds.

T1 sequence (Q96P20 whole entry): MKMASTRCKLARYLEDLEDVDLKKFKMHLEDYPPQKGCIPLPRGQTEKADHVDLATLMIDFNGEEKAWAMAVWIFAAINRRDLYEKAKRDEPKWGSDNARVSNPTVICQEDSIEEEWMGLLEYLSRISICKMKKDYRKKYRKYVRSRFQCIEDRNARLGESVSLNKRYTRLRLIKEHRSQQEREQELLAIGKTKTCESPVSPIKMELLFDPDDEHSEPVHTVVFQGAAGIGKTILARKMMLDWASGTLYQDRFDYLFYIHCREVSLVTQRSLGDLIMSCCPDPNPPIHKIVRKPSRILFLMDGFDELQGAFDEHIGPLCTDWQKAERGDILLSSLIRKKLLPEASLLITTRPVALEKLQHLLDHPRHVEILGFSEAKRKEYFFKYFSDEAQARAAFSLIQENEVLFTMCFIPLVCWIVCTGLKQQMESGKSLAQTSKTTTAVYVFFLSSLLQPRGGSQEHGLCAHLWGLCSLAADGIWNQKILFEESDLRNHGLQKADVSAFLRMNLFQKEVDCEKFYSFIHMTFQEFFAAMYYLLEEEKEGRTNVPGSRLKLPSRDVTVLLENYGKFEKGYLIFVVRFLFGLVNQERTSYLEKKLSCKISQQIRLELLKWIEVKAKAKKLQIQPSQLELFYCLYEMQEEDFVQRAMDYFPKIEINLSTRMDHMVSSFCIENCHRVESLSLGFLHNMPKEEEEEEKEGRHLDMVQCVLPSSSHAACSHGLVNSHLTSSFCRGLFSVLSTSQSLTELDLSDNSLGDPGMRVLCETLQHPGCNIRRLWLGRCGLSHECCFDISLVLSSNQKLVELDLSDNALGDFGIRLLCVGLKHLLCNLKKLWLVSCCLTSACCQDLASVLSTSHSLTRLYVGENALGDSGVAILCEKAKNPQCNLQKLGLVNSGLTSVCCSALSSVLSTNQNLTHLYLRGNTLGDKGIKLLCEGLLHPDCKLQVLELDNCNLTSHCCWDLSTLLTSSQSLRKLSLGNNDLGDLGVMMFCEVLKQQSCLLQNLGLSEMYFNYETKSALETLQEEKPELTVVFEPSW

As a reminder, the IC50 is the point on the concentration scale where inhibition reaches its midpoint. Take `O=S(=O)(c1nnc(Nc2c3c(cc4c2CCC4)CCC3)[nH]1)c1ccccc1F` [Example 179, 5-((2-fluorophenyl)sulfonyl)-N-(1,2,3,5,6,7-hexahydro-s-indacen-4-yl)-4H-1,2,4-triazol-3-amine]: the IC50 against NLRP3 [1] was at most 1 µM; at NLRP3 [2] it was at most 10 µM.
`COc1cc(-c2ccc3c(c2Nc2nnc(S(=O)(=O)N4CCC5(CCN5C)CC4)[nH]2)CCC3)ccn1` [Example 204, N-(5-(2-methoxypyridin-4-yl)-2,3-dihydro-1H-inden-4-yl)-5-((1-methyl-1,7-diazaspiro[3.5]nonan-7-yl)sulfonyl)-4H-1,2,4-triazol-3-amine]: the half-maximal inhibitory concentration (IC50) against NLRP3 [1] is at most 0.5 µM; at NLRP3 [2], at most 1 µM.
Turning to `Cc1cc(-c2ccc3c(c2Nc2nnc(S(=O)(=O)N4CCC(N(C)C)CC4)[nH]2)CCO3)ccn1` [Example 217, N,N-dimethyl-1-((5-((5-(2-methylpyridin-4-yl)-2,3-dihydrobenzofuran-4-yl)amino)-4H-1,2,4-triazol-3-yl)sulfonyl)piperidin-4-amine], the concentration for half-maximal inhibition (IC50) at NLRP3 [1] is at most 5 µM; on NLRP3 [2] it was at most 10 µM.
Regarding `CC(C)N1CCN(S(=O)(=O)c2nnc(Nc3c4c(cc5c3CCC5)CCC4)[nH]2)CC1` [Example 117, N-(1,2,3,5,6,7-hexahydro-s-indacen-4-yl)-5-((4-isopropylpiperazin-1-yl)sulfonyl)-4H-1,2,4-triazol-3-amine], the half-inhibitory concentration (IC50) was at most 1 µM against NLRP3 [1] and at most 5 µM at NLRP3 [2].
In the case of `COc1cc(-c2ccc3c(c2Nc2nnc(S(=O)(=O)c4ccn(C)n4)[nH]2)CCC3)ccn1` [Example 339, N-(5-(2-methoxypyridin-4-yl)-2,3-dihydro-1H-inden-4-yl)-5-((1-methyl-1H-pyrazol-3-yl)sulfonyl)-4H-1,2,4-triazol-3-amine], the IC50 was at most 1 µM on NLRP3 [1] and at most 5 µM at NLRP3 [2].
Taken in the same sequence, the figures for `O=S(=O)(c1nnc(Nc2c3c(cc4c2CCC4)CCC3)[nH]1)N1CC[C@H](CNC2CC2)C1` [Example 307, (R)-5-((3-((cyclopropylamino)methyl)pyrrolidin-1-yl)sulfonyl)-N-(1,2,3,5,6,7-hexahydro-s-indacen-4-yl)-4H-1,2,4-triazol-3-amine] were at most 1 µM and at most 10 µM.
Take `O=S(=O)(c1nnc(Nc2c3c(cc4c2CCC4)CCC3)[nH]1)N1CC(N2CCCC2)C1` [Example 136, N-(1,2,3,5,6,7-hexahydro-s-indacen-4-yl)-5-((3-(pyrrolidin-1-yl)azetidin-1-yl)sulfonyl)-4H-1,2,4-triazol-3-amine]: the IC50 on NLRP3 [1] is at most 0.5 µM; at NLRP3 [2], at most 5 µM.
In the same order, the values of `Cc1cc2c(c(Nc3nnc(S(=O)(=O)c4ccccc4)[nH]3)c1-c1ccnc(OC3CCOCC3)c1)CCC2` [Example 370, N-(6-methyl-5-(2-((tetrahydro-2H-pyran-4-yl)oxy)pyridin-4-yl)-2,3-dihydro-1H-inden-4-yl)-5-(phenylsulfonyl)-4H-1,2,4-triazol-3-amine] are at most 0.5 µM and at most 5 µM.
As for `CCN(CC)CCS(=O)(=O)c1nnc(Nc2c3c(cc4c2CCC4)CCC3)[nH]1` [Example 46, 5-((2-(diethylamino)ethyl)sulfonyl)-N-(1,2,3,5,6,7-hexahydro-s-indacen-4-yl)-4H-1,2,4-triazol-3-amine], the values for the IC50 at NLRP3 [1] and at NLRP3 [2] were at most 1 µM and at most 5 µM, respectively.
Taken in the same sequence, the figures for `CC(C)(O)C1CN(S(=O)(=O)c2nnc(Nc3c4c(cc5c3CCC5)CCC4)[nH]2)C1` [Example 151, 2-(1-((5-((1,2,3,5,6,7-hexahydro-s-indacen-4-yl)amino)-4H-1,2,4-triazol-3-yl)sulfonyl)azetidin-3-yl)propan-2-ol] were at most 5 µM and at most 5 µM.
On to `Cc1cc2c(c(Nc3nnc(S(=O)(=O)c4ccccc4)[nH]3)c1-c1ccnc(OC3CCN(C)CC3)c1)CCC2` [Example 318, N-(6-methyl-5-(2-((1-methylpiperidin-4-yl)oxy)pyridin-4-yl)-2,3-dihydro-1H-inden-4-yl)-5-(phenylsulfonyl)-4H-1,2,4-triazol-3-amine], for which the IC50 on NLRP3 [1] was at most 0.5 µM; on NLRP3 [2], at most 5 µM.
For `CNCC1CN(S(=O)(=O)c2nnc(Nc3c4c(cc5c3CCC5)CCC4)[nH]2)C1` [Example 279, N-(1,2,3,5,6,7-hexahydro-s-indacen-4-yl)-5-((3-((methylamino)methyl)azetidin-1-yl)sulfonyl)-4H-1,2,4-triazol-3-amine], the half-inhibitory concentration (IC50) on NLRP3 [1] and on NLRP3 [2] was at most 0.5 µM each time.
`Cc1cc(-c2ccc3c(c2Nc2nnc(S(=O)(=O)N4CCC(N(C)C)CC4)[nH]2)CCC3)ccn1` [Example 221, N,N-dimethyl-1-((5-((5-(2-methylpyridin-4-yl)-2,3-dihydro-1H-inden-4-yl)amino)-4H-1,2,4-triazol-3-yl)sulfonyl)piperidin-4-amine]: the values for the IC50 on NLRP3 [1] and at NLRP3 [2] were at most 0.5 µM and at most 5 µM, respectively.
Taken in the same sequence, the figures for `O=S(=O)(c1nnc(Nc2c3c(cc4c2CCC4)CCC3)[nH]1)N1CC2(CCOC2)C1` [Example 146, 5-(6-oxa-2-azaspiro[3.4]octan-2-ylsulfonyl)-N-(1,2,3,5,6,7-hexahydro-s-indacen-4-yl)-4H-1,2,4-triazol-3-amine] were at most 5 µM and at most 10 µM.
With `O=S(=O)(c1nnc(Nc2c3c(cc4c2CCC4)CCC3)[nH]1)N1CCC2(CCCN2C2CC2)CC1` [Example 246, 5-((1-cyclopropyl-1,8-diazaspiro[4.5]decan-8-yl)sulfonyl)-N-(1,2,3,5,6,7-hexahydro-s-indacen-4-yl)-4H-1,2,4-triazol-3-amine], the IC50 was at most 1 µM on NLRP3 [1] and at most 5 µM at NLRP3 [2].
For `O=S(=O)(Cc1ccccc1)c1nnc(Nc2c3c(cc4c2CCC4)CCC3)[nH]1` [Example 2, 5-(benzylsulfonyl)-N-(1,2,3,5,6,7-hexahydro-s-indacen-4-yl)-4H-1,2,4-triazol-3-amine], the values for the IC50 at NLRP3 [1] and on NLRP3 [2] were at most 10 µM and at most 30 µM, respectively.
With `O=S(=O)(c1nnc(Nc2c3c(cc4c2CCC4)CCC3)[nH]1)N1CCC2(CCOC2)CC1` [Example 360, 5-((2-oxa-8-azaspiro[4.5]decan-8-yl)sulfonyl)-N-(1,2,3,5,6,7-hexahydro-s-indacen-4-yl)-4H-1,2,4-triazol-3-amine], the IC50 on NLRP3 [1] was at most 0.5 µM; at NLRP3 [2] it was at most 5 µM.
Turning to `COc1cc(-c2cc(C#N)c3c(c2Nc2nnc(S(=O)(=O)c4ccccc4)[nH]2)CCC3)ccn1` [Example 192, 6-(2-methoxypyridin-4-yl)-7-((5-(phenylsulfonyl)-4H-1,2,4-triazol-3-yl)amino)-2,3-dihydro-1H-indene-4-carbonitrile], the values for the IC50 at NLRP3 [1] and at NLRP3 [2] were at most 1 µM and at most 5 µM, respectively.
As to `COc1cc(-c2ccc3c(c2Nc2nnc(S(=O)(=O)c4cccc(CN(C)C)c4)[nH]2)CCC3)ccn1` [Example 329, 5-((3-((dimethylamino)methyl)-phenyl)sulfonyl)-N-(5-(2-methoxypyridin-4-yl)-2,3-dihydro-1H-inden-4-yl)-4H-1,2,4-triazol-3-amine], the IC50 is at most 0.5 µM against NLRP3 [1] and at most 5 µM at NLRP3 [2].
As to `O=S(=O)(NCCN1CCCC1)c1nnc(Nc2c3c(cc4c2CCC4)CCC3)[nH]1` [Example 108, 5-((1,2,3,5,6,7-hexahydro-s-indacen-4-yl)amino)-N-(2-(pyrrolidin-1-yl)ethyl)-4H-1,2,4-triazole-3-sulfonamide], the figures for the IC50 on NLRP3 [1] and at NLRP3 [2] were at most 0.5 µM and at most 5 µM, respectively.
For `CC1(O)CCN(S(=O)(=O)c2nnc(Nc3c4c(cc5c3CCC5)CCC4)[nH]2)CC1` [Example 292, 1-((5-((1,2,3,5,6,7-hexahydro-s-indacen-4-yl)amino)-4H-1,2,4-triazol-3-yl)sulfonyl)-4-methylpiperidin-4-ol], the 50% inhibitory concentration (IC50) against NLRP3 [1] and on NLRP3 [2] was at most 5 µM throughout.
For `CN1CCC12CCN(S(=O)(=O)c1nnc(Nc3c(-c4ccnc(OC(F)F)c4)ccc4c3CCC4)[nH]1)CC2` [Example 200, N-(5-(2-(difluoromethoxy)pyridin-4-yl)-2,3-dihydro-1H-inden-4-yl)-5-((1-methyl-1,7-diazaspiro[3.5]nonan-7-yl)sulfonyl)-4H-1,2,4-triazol-3-amine], the IC50 was at most 0.5 µM on NLRP3 [1] and at most 5 µM at NLRP3 [2].
As to `CC(C)c1cc(F)cc(C(C)C)c1Nc1nnc(S(=O)(=O)N2CC3(CCN(C)C3)C2)[nH]1` [Example 242, N-(4-fluoro-2,6-diisopropylphenyl)-5-((6-methyl-2,6-diazaspiro[3.4]octan-2-yl)sulfonyl)-4H-1,2,4-triazol-3-amine], the IC50 on NLRP3 [1] and on NLRP3 [2] was at most 0.5 µM in each case.
